Patent US20180113119A1, “METHODS FOR CHARACTERIZING TIME-BASED HEPATOTOXICITY” (HUREL CORPORATION, priority 2015, published 2018)
Where two headings read alike, the source gives them in different places.

Columns and labels:
[1] = tested on: hepatocyte-stromal cell cocultures comprising dog primary hepatocytes
Experimental: (§1) Cell viability was analyzed using a CellTiter-Blue (Promega) assay, n=4.
(§2) These are concentration dependent toxicity curves generated after 6 days of repeat compound exposure in the 4 different species. Each compound was dosed every 2 days starting on day 0. On the 6th day the Promega Celltiter blue assay was used to measure the conversion of resazurin to the fluorescent resorufin.
(§3) Cryopreserved human hepatocytes were obtained from Thermo Fisher (formerly Life Technologies Corporation). Cryopreserved non-human primate (cynomolgus monkey) hepatocytes were obtained from Thermo Fisher (formerly Life Technologies Corporation). Cryopreserved dog hepatocytes were obtained from IVT Bioreclamation. Cryopreserved rat hepatocytes were obtained from Thermo Fisher (formerly Life Technologies Corporation). The cryopreserved hepatocytes were removed from liquid nitrogen and thawed. After thawing, cells were re-suspended in medium and cell number and cell viability was determined using trypan blue exclusion. Stromal cells were passed in a CO2 incubator until used for experimental plating. On plating day cells were detached from the plate, washed, and re-suspended in medium. Cell number and viability were determined using trypan blue exclusion.
(§4) The stromal cells were growth arrested prior to seeding.
(§5) The graphs in FIGS. 11-13 present concentration dependent toxicity curves generated after 6 days of repeat compound exposure in human, dog, primate, and rat. Each compound was dosed every two days for treatment periods of two days, four days, and six days across a full range of concentrations. On the sixth day a Promega Celltiter blue assay was used to measure mitochondrial metabolic activity. That data was then used to generate a TC50 value. […] In FIG. 11 cyclophosphamide was administered every two days for treatment periods of two days, four days, and six days across a full range of concentrations.

[2] = tested on: hepatocyte-stromal cell cocultures comprising rat primary hepatocytes
Experimental: as §1, §2, §3, §4, §5

[3] = tested on: hepatocyte-stromal cell cocultures comprising primate primary hepatocytes
Experimental: as §1, §2, §3, §4, §5

[4] = tested on: hepatocyte-stromal cell cocultures comprising human primary hepatocytes
Experimental: as §1, §2, §3, §4, §5

[5] = known profile of reference compound; cited from earlier work

O=P1(N(CCCl)CCCl)NCCCO1 (stereo not shown) [Cyclophosphamide]
LC50 (TC50) ([1]; Dog, 6 days of repeat exposure, dosed every 2 days, Celltiter blue): 7,541 μM | effect of multiple dosing on cytotoxicity (cell viability) ([1]; dog, treatment periods of two, four and six days, CellTiter-Blue, n=4): extending the duration of dosing increases the cyclophosphamide cytotoxicity | LC50 (TC50) ([2]; Rat, 6 days of repeat exposure, dosed every 2 days, Celltiter blue): 1,506 μM | effect of multiple dosing on cytotoxicity (cell viability) ([2]; rat, treatment periods of two, four and six days, CellTiter-Blue, n=4): extending the duration of dosing increases the cyclophosphamide cytotoxicity | LC50 (TC50) ([3]; Monkey, 6 days of repeat exposure, dosed every 2 days, Celltiter blue): 1,904 μM | effect of multiple dosing on cytotoxicity (cell viability) ([3]; primate, treatment periods of two, four and six days, CellTiter-Blue, n=4): extending the duration of dosing increases the cyclophosphamide cytotoxicity | LC50 (TC50) ([4]; Human, 6 days of repeat exposure, dosed every 2 days, Celltiter blue): 5,523 μM | effect of multiple dosing on cytotoxicity (cell viability) ([4]; human, treatment periods of two, four and six days, CellTiter-Blue, n=4): extending the duration of dosing increases the cyclophosphamide cytotoxicity

Cc1c(C)c2c(c(C)c1O)CCC(C)(COc1ccc(CC3SC(=O)NC3=O)cc1)O2 (stereo not shown) [Troglitazone]
LC50 (TC50) ([1]; dog, 6 days): 267 µM | LC50 (TC50) ([2]; rat, 6 days): 317 µM | LC50 (TC50) ([3]; cynomolgus monkey, 6 days): 207 µM | LC50 (TC50) ([4]; human, 6 days): 308 µM

COc1ccccc1Oc1c(NS(=O)(=O)c2ccc(C(C)(C)C)cc2)nc(-c2ncccn2)nc1OCCO [bosentan]
LC50 (TC50) at 24 hours (human hepatocytes): 757 µM | known in vivo hepatotoxicity [5]: strong in vivo hepatotoxicity

CN(C)CCCN1c2ccccc2Sc2ccc(Cl)cc21 [chlorpromazine]
LC50 (TC50) at 24 hours (human hepatocytes): 21 µM

CC(C)NCC(O)COc1cccc2ccccc12 (stereo not shown) [propranolol]
known in vivo hepatotoxicity [5]: lack of hepatotoxicity
